These results are taken from patent US20090092631A1, “GLYCOSYLATED SPECIFICITY EXCHANGERS THAT INDUCE AN ANTIBODY DEPENDENT CELLULAR CYTOTOXICITY (ADCC) RESPONSE” (priority 2007, published 2009).

For this assay, the system named is human Gal-alpha1,3-Gal-specific antibodies. The experiment in a line: Glycosylated peptide competitive assay on Gal-BSA coated plates with human sera IB72. In kind it is binding. Particulars: mixed with human sera, positive control. The procedure:
To further evaluate the ability of the glycosylated specificity exchangers to bind to a pathogen, a glycosylated peptide competitive assay was performed using the most reactive human sera (IB72). In brief, Gal-alpha-1,3-Gal-labeled bovine serum albumin (Gal-BSA) was coated onto 96-well microplates in sodium carbonate buffer (pH: 9.6) at +4° C. overnight. Dilutions of human sera and dilutions of glyco-peptides (glycosylated HIV-specific ligand/receptor specificity exchangers or Gal-BSA) or non-glycosylated peptides (HIV-specific ligand/receptor specificity exchangers or BSA) were preincubated in phosphate-buffered saline (PBS) containing 1% bovine albumin, 2% goat serum and 0.05% Tween 20 at 37° C. for 1 h. The mixture was then added to the coated plates and incubated at 37° C. for 1 h, then washed 3 times with phosphate-buffered saline (PBS) containing 0.05% Tween 20 (pH: 7.4).
Bound antibodies were indicated with goat anti-human polyvalent Ig, conjugated with alkaline phosphatase. The plates were incubated and washed as described above. Plates were developed with phosphatase substrate at room temperature for 30 min, stopped with 1 M NaOH. Optical density (OD) at 405 nm/650 nm was determined to quantify the inhibition. […] Thus, specificity exchangers that bind Gal-alpha1,3-Gal-specific antibodies had been generated. […]

Take “Gal-alpha-1,3-Gal-labeled bovine serum albumin [Gal-BSA]”: the “inhibition of human antibody binding to Gal-BSA” value amounted to 100%.
